Data reported in patent US9777005B2 (Takeda Pharmaceutical Company Limited, priority 2012, dated 2017).

Target: T1, human M1 receptor (hCHRM1) (Homo sapiens, UniProt P11229)
T1 construct: expressed in transfected cells; host or cells: CHO-K1
T1 sequence (P11229 1-460): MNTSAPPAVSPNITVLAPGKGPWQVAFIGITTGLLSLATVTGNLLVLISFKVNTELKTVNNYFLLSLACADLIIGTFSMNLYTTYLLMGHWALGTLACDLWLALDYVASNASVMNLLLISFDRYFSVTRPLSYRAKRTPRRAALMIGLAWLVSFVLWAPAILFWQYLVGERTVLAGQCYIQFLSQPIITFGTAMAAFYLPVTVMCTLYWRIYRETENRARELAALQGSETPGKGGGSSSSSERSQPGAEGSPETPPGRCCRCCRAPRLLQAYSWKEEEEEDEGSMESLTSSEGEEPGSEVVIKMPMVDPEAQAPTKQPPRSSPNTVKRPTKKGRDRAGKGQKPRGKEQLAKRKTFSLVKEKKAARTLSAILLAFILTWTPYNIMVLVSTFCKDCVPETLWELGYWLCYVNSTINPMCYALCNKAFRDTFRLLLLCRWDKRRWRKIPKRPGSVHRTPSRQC
Assay: Measurement of M1 receptor positive allosteric modulator (M1PAM) activity, calcium fluorescence (FLIPRtetra) in CHO-K1 cells in the presence of acetylcholine at EC20
Format: cell-based
Conditions: in the presence of acetylcholine at EC20 (final 0.6 nM), CHO-K1 cells expressing hCHRM1; for EC50: inflection point of M1PAM activity, read-out: IP value; for activity (%) at 10 μM: test compound 10 μM
Method in brief: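 CHO-K1 cells expressing human M1 were loaded with Fluo-4 AM, and compound was added with acetylcholine at EC20 (final 0.6 nM). Calcium fluorescence was read on FLIPRtetra for 1 min. Activity was normalized to 1 μM acetylcholine (100%) and DMSO (0%), and the curve inflection point was reported as IP.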

Compound	EC50 [nM]	activity (%) at 10 μM [%]
Cc1nn(C)cc1-c1ccc(CN2Cc3cccc(O[C@@H]4CCOC[C@H]4O)c3C2=O)cc1 (single isomer, unassigned) [Example 248, 1,5-anhydro-2-deoxy-3-O-(2-(4-(1,3-dimethyl-1H-pyrazol-4-yl)benzyl)-3-oxo-2,3-dihydro-1H-isoindol-4-yl)-threo-pentitol]	3	117
Cc1ccc(Oc2nccc3c2C(=O)N(Cc2ccc(-n4cnc(C)c4)cc2)C3)c(F)c1 [Example 427, 4-(2-fluoro-4-methylphenoxy)-2-(4-(4-methyl-1H-imidazol-1-yl)benzyl)-1,2-dihydro-3H-pyrrolo[3,4-c]pyridin-3-one]	31	111
CNC(=O)c1ccc(CN2Cc3ccnc(Oc4ccc(CC(F)(F)F)cc4F)c3C2=O)cc1 [Example 457, 4-((4-(2-fluoro-4-(2,2,2-trifluoroethyl)phenoxy)-3-oxo-1,3-dihydro-2H-pyrrolo[3,4-c]pyridin-2-yl)methyl)-N-methylbenzamide]	8.6	91
Cn1cc(-c2ccc(CN3Cc4cccc(O[C@H]5CCC[C@@H]5O)c4C3=O)cc2)nn1 (relative stereo) [Example 235, 7-((trans-2-hydroxycyclopentyl)oxy)-2-(4-(1-methyl-1H-1,2,3-triazol-4-yl)benzyl)isoindolin-1-one]	14	105
Cn1cc(-c2ccc(CN3Cc4ccnc(OC5CCC5)c4C3=O)cc2)nn1 [Example 335, 4-(cyclobutyloxy)-2-(4-(1-methyl-1H-1,2,3-triazol-4-yl)benzyl)-1,2-dihydro-3H-pyrrolo[3,4-c]pyridin-3-one]	57	98
Cn1cc(-c2ccc(CN3Cc4cccc(Oc5ccc(C(O)C(F)(F)F)cc5F)c4C3=O)nc2)cn1 (stereo not drawn) [Example 389, 7-(2-fluoro-4-(2,2,2-trifluoro-1-hydroxyethyl)phenoxy)-2-((5-(1-methyl-1H-pyrazol-4-yl)pyridin-2-yl)methyl)isoindolin-1-one]	32	93
Cn1ccc(-c2ccc(CN3Cc4ccnc(Oc5ccc(C(F)(F)F)cc5F)c4C3=O)cc2)n1 [Example 305, 4-(2-fluoro-4-(trifluoromethyl)phenoxy)-2-(4-(1-methyl-1H-pyrazol-3-yl)benzyl)-1,2-dihydro-3H-pyrrolo[3,4-c]pyridin-3-one]	25	94
Cc1cc(-c2ccc(CN3Cc4ccnc(OCC5CCOC5)c4C3=O)cc2)ccn1.Cl (stereo not drawn) [Example 266, 2-(4-(2-methylpyridin-4-yl)benzyl)-4-((tetrahydrofuran-3-yl)methoxy)-1,2-dihydro-3H-pyrrolo[3,4-c]pyridin-3-one hydrochloride]	45	100
C[C@@H](O)[C@@H](C)Oc1nccc2c1C(=O)N(Cc1ccc(Cl)cc1)C2 [Example 423, 2-(4-chlorobenzyl)-4-(((2R,3R)-3-hydroxybutan-2-yl)oxy)-1,2-dihydro-3H-pyrrolo[3,4-c]pyridin-3-one]	90	96
Cc1cc(-c2ccc(CN3Cc4ccnc(Oc5c(C)cc(F)cc5F)c4C3=O)cc2)cnn1 [Example 358, 4-(2,4-difluoro-6-methylphenoxy)-2-(4-(6-methylpyridazin-4-yl)benzyl)-1,2-dihydro-3H-pyrrolo[3,4-c]pyridin-3-one]	77	91
Cn1ccc(-c2ccc(CN3Cc4ccnc(O[C@H]5CCC[C@@H]5O)c4C3=O)cc2)n1 (relative stereo) [Example 237, 4-((trans-2-hydroxycyclopentyl)oxy)-2-(4-(1-methyl-1H-pyrazol-3-yl)benzyl)-1,2-dihydro-3H-pyrrolo[3,4-c]pyridin-3-one]	23	108
Cn1cc(-c2ccc(CN3Cc4cccc(OCCO)c4C3=O)cc2)cn1 [Example 17, 7-(2-hydroxyethoxy)-2-(4-(1-methyl-1H-pyrazol-4-yl)benzyl)isoindolin-1-one]	120	118
C[C@@H](O)[C@@H](C)Oc1nccc2c1C(=O)N(Cc1ccc(F)cc1F)C2 [Example 424, 2-(2,4-difluorobenzyl)-4-(((2R,3R)-3-hydroxybutan-2-yl)oxy)-1,2-dihydro-3H-pyrrolo[3,4-c]pyridin-3-one]	88	106
Cn1cc(-c2ccc(CN3Cc4ccnc(Oc5c(F)cc(C#N)cc5F)c4C3=O)c(F)c2)cn1 [Example 386, 3,5-difluoro-4-((2-(2-fluoro-4-(1-methyl-1H-pyrazol-4-yl)benzyl)-3-oxo-2,3-dihydro-1H-pyrrolo[3,4-c]pyridin-4-yl)oxy)benzonitrile]	1.4	86
Cc1cc(-c2cnc(CN3Cc4cccc(Oc5c(F)cccc5F)c4C3=O)c(F)c2)ccn1 [Example 264, 7-(2,6-difluorophenoxy)-2-((5-fluoro-2′-methyl-3,4′-bipyridin-6-yl)methyl)isoindolin-1-one]	140	92
Cn1cnc(-c2ccc(CN3Cc4ccnc(Oc5ccc(C(F)(F)F)cc5F)c4C3=O)cc2)c1 [Example 419, 4-(2-fluoro-4-(trifluoromethyl)phenoxy)-2-(4-(1-methyl-1H-imidazol-4-yl)benzyl)-1,2-dihydro-3H-pyrrolo[3,4-c]pyridin-3-one]	7.3	102
Cn1cc(-c2ccc(CN3Cc4cccc(Oc5c(F)cccc5Cl)c4C3=O)cc2)cn1 [Example 12, 7-(2-chloro-6-fluorophenoxy)-2-(4-(1-methyl-1H-pyrazol-4-yl)benzyl)isoindolin-1-one]	36	57
Cn1ccc(-c2ccc(CN3Cc4ccnc(Oc5c(F)cc(C#N)cc5F)c4C3=O)c(F)c2)n1 [Example 387, 3,5-difluoro-4-((2-(2-fluoro-4-(1-methyl-1H-pyrazol-3-yl)benzyl)-3-oxo-2,3-dihydro-1H-pyrrolo[3,4-c]pyridin-4-yl)oxy)benzonitrile]	7.1	102
CC(C)n1cc(-c2ccc(CN3Cc4ccnc(Oc5c(F)cc(C#N)cc5F)c4C3=O)cc2)cn1 [Example 384, 3,5-difluoro-4-((2-(4-(1-isopropyl-1H-pyrazol-4-yl)benzyl)-3-oxo-2,3-dihydro-1H-pyrrolo[3,4-c]pyridin-4-yl)oxy)benzonitrile]	7.8	91
Cc1nn(C)cc1-c1ccc(CN2Cc3ccnc(OC4CCC4)c3C2=O)cc1 [Example 403, 4-(cyclobutyloxy)-2-(4-(1,3-dimethyl-1H-pyrazol-4-yl)benzyl)-1,2-dihydro-3H-pyrrolo[3,4-c]pyridin-3-one]	57	102
Cc1nn(C)cc1-c1ccc(CN2Cc3ccnc(OCC4CCCO4)c3C2=O)cc1 (stereo not drawn) [Example 78, 2-(4-(1,3-dimethyl-1H-pyrazol-4-yl)benzyl)-4-((tetrahydrofuran-2-yl)methoxy)-1,2-dihydro-3H-pyrrolo[3,4-c]pyridin-3-one]	10	104
Cc1nn(C)cc1-c1ccc(CN2Cc3ccnc(O[C@@H]4CCC[C@H]4O)c3C2=O)cc1 (single isomer, unassigned) [Example 256, 2-(4-(1,3-dimethyl-1H-pyrazol-4-yl)benzyl)-4-((trans-2-hydroxycyclopentyl)oxy)-1,2-dihydro-3H-pyrrolo[3,4-c]pyridin-3-one]	4	101
Cn1cc(-c2ccc(CN3Cc4cccc(Oc5c(F)cc(C#N)cc5F)c4C3=O)cn2)cn1 [Example 378, 3,5-difluoro-4-((2-((6-(1-methyl-1H-pyrazol-4-yl)pyridin-3-yl)methyl)-3-oxo-2,3-dihydro-1H-isoindol-4-yl)oxy)benzonitrile]	33	98
CCCc1ccc(Oc2nccc3c2C(=O)N(Cc2ccc(C(N)=O)c(F)c2)C3)c(F)c1 [Example 452, 2-fluoro-4-((4-(2-fluoro-4-propylphenoxy)-3-oxo-1,3-dihydro-2H-pyrrolo[3,4-c]pyridin-2-yl)methyl)benzamide]	45	102
N#Cc1ccc(CN2Cc3cccc(O[C@H]4CCCC[C@@H]4O)c3C2=O)cc1 (relative stereo) [Example 33, 4-((7-((trans-2-hydroxycyclohexyl)oxy)-1-oxo-1,3-dihydro-2H-isoindol-2-yl)methyl)benzonitrile]	77	98
Cn1cc(-c2ccc(CN3Cc4ncnc(Oc5c(F)cccc5Cl)c4C3=O)cc2)cn1 [Example 396, 4-(2-chloro-6-fluorophenoxy)-6-(4-(1-methyl-TH-pyrazol-4-yl)benzyl)-6,7-dihydro-5H-pyrrolo[3,4-d]pyrimidin-5-one]	33	95
Cn1cc(-c2ccc(CN3Cc4ccnc(Oc5cc(C(C)(C)O)ccc5F)c4C3=O)cc2)cn1 [Example 308, 4-(2-fluoro-5-(2-hydroxypropan-2-yl)phenoxy)-2-(4-(1-methyl-1H-pyrazol-4-yl)benzyl)-1,2-dihydro-3H-pyrrolo[3,4-c]pyridin-3-one]	44	99
